The source of these data is US20200062719A1, “Application of Imidazopyridine Derivatives in Regenerative Medicine” (University of Heidelberg, priority 2018, published 2020).

Molecules are shown by their SMILES.

The first experiment has as its system Oct4. Put plainly: Luciferase reporter assay in NCCIT-Oct4 cells. It is filed as cell-based, human. The settings on record: histone demethylase inhibitors, 48 h. The method, then:
The ability of the lead compound to induce Oct4 at translational level was tested in a luciferase reporter cell line in human embryonic carcinoma NCCIT cells driven by Oct4 response elements (NCCIT-Oct4). The compound lead to a nearly 10-fold induction of Oct4 at 10 nM compared to untreated cells (FIG. 1B). Consequently, the lead compound was named “Oct4 inducing compound 3” (O4I3).
Luciferase reporter assay was performed using Beatle Juice Kit (PJK, Germany) according to the manufacturer's instruction. NCCIT-Oct and NCCIT-Nanog reporter cells were plated into a 24-well plate (100,000 cells/well) for 24 h. Cells were treated with compounds as indicated and harvested with luciferase lysis buffer (25 mM Tris phosphate buffer pH=7.8, 4 mM EGTA, 1% Triton X-100, 10% glycerol and 2 mM fresh DTT, filtered through 0.45 μm sterile filter) at 37° C. for 15 min. The protein concentration was determined by Bradford assay (Sigma, Germany). 100 μL reaction mixture containing luciferin and ATP was added to 20 μL cell lysis in a white plate (Gibco, Germany), incubated for 5 min and measured by a luminometer plate-reader. The activity was determined as percent luminous intensity of treated cells over control cells from at least five-independent experiments.
For orientation: In a reporter assay the amount or activity of a reporter protein is the signal.
As to `Clc1ccc(N/N=C(\c2ccccc2)c2ccccn2)nc1` [JIB-04, reference compound], the “induction of OCT4 expression in NCCIT-OCT4 reporter cell line” value (“induction of OCT4 expression” for short) is reported as 5 fold.

Regarding `CC(C)c1c(-c2ccccc2)[nH]c2c(C#N)cnn2c1=O` [CPI-455], the “induction of OCT4 expression” value came out at 3 fold.

In the case of `CN(C)NC(=O)CCC(=O)O` [daminozide], the “induction of OCT4 expression” value is “not”.

As to `CCOC(=O)CCNc1cc(N2CCc3ccccc3CC2)nc(-c2ccccn2)n1` [GSK-J4], the “induction of OCT4 expression” value is “not”.

In the next experiment the test system is human fibroblasts. The experiment is described as follows: qRT-PCR of reprogramming associated genes in human fibroblasts. On the set-up: expression of OCT4, SOX2, and E-Cadherin in HFs: dose or concentration left out as unconfirmed. It is filed as cell-based. The settings on record: JIB-04 treated fibroblasts. The method, then: Analyzing the effects of O4I3 on human fibroblasts, the activation of reprogramming associated genes, including an about 10-fold induction of Oct4, Nanog and Lin28, and an about 100-fold increase of Sox2 and E-Cadherin mRNA levels was detected. In particular, expression of several essential genes for reprogramming is equal to those in pluripotent stem cells, such as Esrrb, FGF2 and Sall4 (FIG. 12).
Quantitative reverse-transcription real-time-PCR was performed using a Light Cycler 96 (Roche, Germany) following the manufacturer's protocol. Briefly, total RNA was isolated from cells using TRIzol (Qiagen, Germany) or NucleoSpin®RNA Plus (Macherey-Nagel, Germany). The same amount of RNA was used to reverse-transcriptional synthesize cDNA by using random primers ProtoScript® First Strand cDNA Synthesis Kit (NEB, Germany). qPCR was performed using the SYBR Green PCR master mix (qPCRBIO SyGreen Mix Lo-Rox, Nippon Genetics, Germany) and the primer pairs indicated below (MWG, Eurofins, Germany). Actin was used as an endogenous control. Data were normalized to the value of untreated cells showing the mean±SD of quadruplicates and are representative of at least three independent experiments.
Background: In qPCR the cycle at which signal appears reflects the starting amount.
As for `Clc1ccc(N/N=C(\c2ccccc2)c2ccccn2)nc1` [JIB-04, reference compound], the “expression of OCT4, SOX2, and E-Cadherin in HFs” value was “induction”.

The subject of the next experiment is OCT4-promoter. The experiment is described as follows: Luciferase reporter assay in HEK-OCT4 cells. It is filed as cell-based.
Conditions: not given
The protocol:
In an effort to find such chemical structures able to induce pluripotency, a high-throughput screening (HTS) was performed. The screen was based on cellular luciferase reporter assays under the control of the promoter activity of a pluripotency-associated transcription factor (Oct4) in HEK293 cells.
The inventors adopted Hantzsch thiazole synthesis (FIG. 20A) and produced a series of new O4I2-ester derivatives (FIG. 20B). Their activities were measured in three luciferase report cell lines, namely HEK-OCT4, driven by the activation of OCT4-promoter, and NCCIT-OCT4 and NCCIT-NANOG, whose intensities are controlled by endogenous OCT4 and NANOG respectively. […] Carboxylesterase 1 (CES1) is an enzyme majorly contributing to ester-to-acid conversion.
Regarding `O=C(O)c1csc(Nc2ccc(Cl)cc2)n1` [O4I2-COON, 2-(4-chlorophenylamino)thiazole-4-carboxylic acid], the “activity in HEK-OCT4 cells” value is “inactive”.

Another experiment relates to promoter of Oct4. The experiment is described as follows: ChIP-qPCR of H3K4Me3 at the promoter of Oct4 in reprogramming-resistant fibroblasts. It is filed as cell-based, human. To be noted: HF4, in combination with OSKM overexpression. The source says: The importance of active tri-methylation of histone H3 lysine 4 (H3K4Me3) in promoting transcription factors binding to an ‘open’ chromatin state and thereby initiation of reprogramming is known in the art. In good agreement, the inventors found the abundance of H3K4Me3 in O4I3-treated reprogramming-resistant fibroblasts by immunostaining (FIG. 14) and immunoblotting (FIG. 5B). To directly study if O4I3 facilitated the binding of H3K4Me3 to the promoter of Oct4, a CHIP-qPCR experiment was performed.
In reprogramming-resistant HF4, the level of H3K4Me3 at the promoter of OCT4 was increased by OSKM, but was still nearly 1,000-fold lower than that in PSCs (FIG. 19A). […] However, a clear influence on H3K4 methylation was not observed in the presence of KDM5B-, KDM5C-, or KDM5D-siRNA (FIG. 19A). […] Indeed, the reprogramming efficiency is negatively correlated with the expression of KDM5A in 11 HFs (FIG. 19D). Moreover, KDM5A siRNA increased the global level of H3K4Me3 in a dose-dependent manner (FIG. 19E). Of note, the alternation in the occupation of H3K27Me3 at the promoter of OCT4 was more refractory to chemical inhibition or genetic repression of KDM5s in the inventors' experiments (FIG. 19B). […]
As to `Clc1ccc(N/N=C(\c2ccccc2)c2ccccn2)nc1` [JIB-04, reference compound], the “levels of H3K4Me3 at the promoter of OCT4” value is “significantly elevated”.

Another experiment deals with Oct4. The experiment is described as follows: Luciferase reporter assay in NCCIT-Oct4 cells. It is filed as cell-based, human. To be noted: 100 nM, NCCIT-Oct4 cells.
With `Cc1ccc2nc(-c3ccc(Cl)cc3)cn2c1` [Compound 103, 2-(4-chlorophenyl)-6-methyl-imidazo[1,2-a]pyridine], the “Oct4 inducing activity as compared to the activity of O4I3 (101)” value was “increased the activity”.

With `Cc1ccc2nc(-c3ccc([N+](=O)[O-])cc3)cn2c1` [Compound 105, 6-methyl-2-(4-nitrophenyl)imidazo[1,2-a]pyridine], the “Oct4 inducing activity as compared to the activity of O4I3 (101)” value is “significantly reduced the induction”.

Regarding `COc1ccc(-c2cn3cc(C)ccc3n2)cc1` [Compound 106, 2-(4-methoxyphenyl)-6-methyl-imidazo[1,2-a]pyridine], the “Oct4 inducing activity as compared to the activity of O4I3 (101)” value is reported as “significantly reduced the induction”.

As to `Cc1ccc2nc(-c3ccc(C#N)cc3)cn2c1` [Compound 108, 4-(6-methylimidazo[1,2-a]pyridin-2-yl)benzonitrile], the “Oct4 inducing activity as compared to the activity of O4I3 (101)” value is listed as “significantly reduced the induction”.

Consider `Cc1ccc2nc(-c3ccccc3)cn2c1` [Compound 109, 6-methyl-2-phenyl-imidazo[1,2-a]pyridine], for which the “Oct4 inducing activity as compared to the activity of O4I3 (101)” value was “not affected”.

As to `Cc1ccc2nc(-c3ccc(Br)cc3)cn2c1` [Compound 104, 2-(4-bromophenyl)-6-methyl-imidazo[1,2-a]pyridine], the “Oct4 inducing activity as compared to the activity of O4I3 (101)” value was “increased the activity”.

Take `Cc1ccc2nc(-c3ccc(O)cc3)cn2c1` [Compound 107, 4-(6-methylimidazo[1,2-a]pyridin-2-yl)phenol]: the “Oct4 inducing activity as compared to the activity of O4I3 (101)” value is on record as “significantly reduced the induction”.

In the case of `Cc1ccc2nc(-c3ccc(F)cc3)cn2c1` [Compound 102, 2-(4-fluorophenyl)-6-methyl-imidazo[1,2-a]pyridine], the “Oct4 inducing activity as compared to the activity of O4I3 (101)” value is listed as “increased the activity”.
